In US12660819B2, “Herbicidal derivatives” (SYNGENTA CROP PROTECTION AG, priority 2020, dated 2026):

What was measured:
Assay type in all cases: in vivo
[1] = system: Echinochloa crus-galli (ECHCG); test: Pre-emergence Test (glasshouse, percentage damage to the plant); conditions: 1000 g/ha unless otherwise stated, five-point scale
[2] = system: Echinochloa crus-galli (ECHCG); test: Post-emergence Test (glasshouse, percentage damage to the plant); conditions: post-emergence spray, 1000 g/ha unless otherwise stated, evaluated after 13 days
Outline: (§1)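 Percentage damage to the plant, assessed 13 days after application and scored 1–5 in 20% bands. Pots sown in standard soil received compound at 1000 g/ha unless otherwise stated, sprayed under 24/16 °C, 14 h light, 65% humidity.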

Solanum nigrum (SOLNI) [3] = test: as above; conditions: post-emergence spray, 1000 g/ha unless otherwise stated, evaluated after 13 days
Outline: as §1

[4] = system: Ipomoea hederacea (IPOHE); test: as above; conditions: post-emergence spray, 1000 g/ha unless otherwise stated, evaluated after 13 days
Outline: (§2)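 Seeds sown in standard soil in a glasshouse (24/16 °C day/night, 14 h light, 65% humidity), then sprayed with an aqueous solution of the compound formulated in acetone/water 50:50 with 0.5% Tween 20 at 1000 g/ha unless otherwise stated. Percentage damage was scored after 13 days on a five-point scale (5=81-100%; 1=0-20%).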

Setaria faberi (SETFA) [5] = test: as above; conditions: post-emergence spray, 1000 g/ha unless otherwise stated, evaluated after 13 days
Outline: as §2

Lolium perenne (LOLPE) [6] = test: as above; conditions: post-emergence spray, 1000 g/ha unless otherwise stated, evaluated after 13 days
Outline: as §1

[7] = system: Amaranthus retoflexus (AMARE); test: as above; conditions: post-emergence spray, 1000 g/ha unless otherwise stated, evaluated after 13 days
Outline: as §1

Lolium perenne (LOLPE) [8] = test: Pre-emergence Test (glasshouse, percentage damage to the plant); conditions: 1000 g/ha unless otherwise stated, five-point scale
Solanum nigrum (SOLNI) [9] = test: as above; conditions: 1000 g/ha unless otherwise stated, five-point scale
Setaria faberi (SETFA) [10] = test: as above; conditions: 1000 g/ha unless otherwise stated, five-point scale
[11] = system: Amaranthus retoflexus (AMARE); test: as above; conditions: 1000 g/ha unless otherwise stated, five-point scale
[12] = system: Ipomoea hederacea (IPOHE); test: as above; conditions: 1000 g/ha unless otherwise stated, five-point scale

SMILES	percentage damage to the plant, ECHCG [1]	Post-emergence Test ECHCG, percentage damage to the plant (five-point scale) [2]	Post-emergence Test SOLNI, percentage damage to the plant (five-point scale) (Solanum nigrum (SOLNI) [3])	Post-emergence Test IPOHE, percentage damage to the plant (five-point scale) [4]	Post-emergence Test SETFA, percentage damage to the plant (five-point scale) (Setaria faberi (SETFA) [5])	Post-emergence Test LOLPE, percentage damage to the plant (five-point scale) (Lolium perenne (LOLPE) [6])	Post-emergence Test AMARE, percentage damage to the plant (five-point scale) [7]	percentage damage to the plant, LOLPE (Lolium perenne (LOLPE) [8])	percentage damage to the plant, SOLNI (Solanum nigrum (SOLNI) [9])	percentage damage to the plant, SETFA (Setaria faberi (SETFA) [10])	percentage damage to the plant, AMARE [11]	percentage damage to the plant, IPOHE [12]
CCn1c(C)c(-c2ccc(F)nc2)c(=O)c(C(=O)O)c1-c1ccc(Cl)c(Cl)c1 [Compound 8, 2-(3,4-dichlorophenyl)-1-ethyl-5-(6-fluoro-3-pyridyl)-6-methyl-4-oxo-pyridine-3-carboxylic acid]	2 (2=21-40%)	4 (4=61-80%)	5 (5=81-100%)	4 (4=61-80%)	5 (5=81-100%)	3 (3=41-60%)	5 (5=81-100%)	3 (3=41-60%)	3 (3=41-60%)	4 (4=61-80%)	3 (3=41-60%)	1 (1=0-20%)
Cc1c(-c2ccc(Cl)cc2)c(=O)c(C(=O)O)c(-c2ccc(Cl)c(Cl)c2)n1C [Compound 5, 5-(4-chlorophenyl)-2-(3,4-dichlorophenyl)-1,6-dimethyl-4-oxo-pyridine-3-carboxylic acid]	4 (4=61-80%)	5 (5=81-100%)	2 (2=21-40%)	3 (3=41-60%)	5 (5=81-100%)	1 (1=0-20%)	3 (3=41-60%)	4 (4=61-80%)	4 (4=61-80%)	4 (4=61-80%)	4 (4=61-80%)	4 (4=61-80%)
CCn1c(C)c(-c2cncn2C)c(=O)c(C(=O)OC)c1-c1ccc(Cl)c(Cl)c1 [Compound 39, methyl 2-(3,4-dichlorophenyl)-1-ethyl-6-methyl-5-(3-methylimidazol-4-yl)-4-oxo-pyridine-3-carboxylate]	1 (1=0-20%)	1 (1=0-20%)	1 (1=0-20%)	1 (1=0-20%)	1 (1=0-20%)	1 (1=0-20%)	1 (1=0-20%)	1 (1=0-20%)	1 (1=0-20%)	1 (1=0-20%)	1 (1=0-20%)	1 (1=0-20%)
CCn1c(C)c(-c2ccnc(F)c2)c(=O)c(C(=O)O)c1-c1ccc(Cl)c(Cl)c1 [Compound 17, 2-(3,4-dichlorophenyl)-1-ethyl-5-(2-fluoro-4-pyridyl)-6-methyl-4-oxo-pyridine-3-carboxylic acid]	3 (3=41-60%)	4 (4=61-80%)	3 (3=41-60%)	4 (4=61-80%)	4 (4=61-80%)	4 (4=61-80%)	4 (4=61-80%)	3 (3=41-60%)	3 (3=41-60%)	5 (5=81-100%)	1 (1=0-20%)	1 (1=0-20%)
